# Source: patent publication US20170319532A1, “METHODS AND FORMULATIONS FOR TREATMENT AND/OR PREVENTION OF BLOOD-ASSOCIATED DISORDERS” (TWi Biotechnology, Inc., priority 2016, published 2017)
# Tested on: hemophilic arthropathy rat model (knee joint swelling)
# Experiment: Joint swelling in rat hemophilic arthropathy model induced by intraarticular injection of whole blood
# Type: in vivo, female Lewis rats
# Conditions: for % change of joint swelling: left vs right knee oval area, p<0.05
# Method: A total of 8 female Lewis rats were used for hemophilia arthropathy (HA) study. The animals were specific pathogen free and approximately 6 to 7 weeks old upon start dosing.
# Animals were randomized into 2 groups on Day 1 and started to receive diacerein or vehicle treatments throughout the study of 10 days. On Day 4 and Day 8, treatment was performed 1 hour before HA model induction. For HA induction, under anesthesia with 1.5-5% isoflurane (inhalation anesthesia machine, Matrix vip 3000 isoflurane), blood was collected from orbital sinus of each rat and immediately, 0.1 ml of whole blood was intraarticular injected into the cavity of left knee using syringe with 27G needle. The blood was anti-coagulated with EDTA-2K. Body weight and joint swelling measurement were assessed 4 hours post-dosing every day.
# The longitudinal and transverse axes of both knee joints were measured with calipers on Day 1 (pre-dose), Day 4 (pre-dose), and Day 4-10 (4 hours post-dose). The oval area of knee joints and % change of joint swelling was calculated using the following formula:
# Oval area=longitudinal axis×transverse axis×3.14×0.25% change of joint swelling=(Oval area left−Oval area right)/Oval area right×100%
smiles,measurement,setting,value
"CC(=O)Oc1cccc2c1C(=O)c1c(OC(C)=O)cc(C(=O)O)cc1C2=O [diacerein, 4,5-bis (acetyloxy) 9,10-dihydro-4,5-dihydroxy-9,10-dioxo-2-anthracenecarboxylic acid]",% change of joint swelling,"Day 8, the second hemophilia arthropathy induction, vehicle 22.57±3.77%",10.02±3.54%
same,% change of joint swelling,"Day 10, end of the study, vehicle 13.51±4.78%",0.50±3.28%
same,joint swelling (qualitative),"hemophilic arthropathy rat model, compared with vehicle",suppressed joint swelling
